US9725442B2, “Heterocyclic derivative having PGD2 receptor antagonist activity” (Shionogi & Co., Ltd., priority 2011, dated 2017)
Read-outs that look alike come from different tables or passages of the source.

Key:
CYP2C9 = CYP2C9 (Homo sapiens (Human), UniProt P11712); experiment: CYP inhibition test, tolbutamide methyl-hydroxylation; assay type: in vitro ADME; settings: pooled human hepatic microsome, 100 μmol/L tolbutamide
From the text: Using commercially available pooled human hepatic microsome, and employing, as markers, 7-ethoxyresorufin O-deethylation (CYP1A2), tolbutamide methyl-hydroxylation (CYP2C9), mephenyloin 4′-hydroxylation (CYP2C19), dextromethorphan O-demethylation (CYP2D6), and terfenedine hydroxylation as typical substrate metabolism reactions of human main five CYP enzyme forms (CYP1A2, 2C9, 2C19, 2D6, 3A4), an inhibitory degree of each metabolite production amount by a compound of the present compound was assessed.
The reaction conditions were as follows: substrate, 0.5 μmol/L ethoxyresorufin (CYP1A2), 100 μmol/L tolbutamide (CYP2C9), 50 μmol/L S-mephenyloin (CYP2C19), 5 μmol/L dextromethorphan (CYP2D6), 1 μmol/L terfenedine (CYP3A4); reaction time, 15 minutes; reaction temperature, 37° C.; enzyme, pooled human hepatic microsome 0.2 mg protein/mL; concentration of a compound of the present invention, 1, 5, 10, 20 μmol/L (four points).
Each five kinds of substrates, human hepatic microsome, or a compound of the present invention in 50 mM Hepes buffer as a reaction mixture was added to a 96-well plate at the composition as described above, NADPH, as a cofactor was added to initiate metabolism reactions as markers and. After the incubation at 37° C. for 15 minutes, a methanol/acetonitrile=1/1 (v/v) solution was added to stop the reaction. After the centrifugation at 3000 rpm for 15 minutes, resorufin (CYP1A2 metabolite) in the supernatant was quantified by a fluorescent multilabel counter and tolbutamide hydroxide (CYP2C9 metabolite), mephenyloin 4′ hydroxide (CYP2C19 metabolite), dextrorphan (CYP2D6 metabolite), and terfenadine alcohol (CYP3A4 metabolite) were quantified by LC/MS/MS.

CRTH2 = CRTH2 (Homo sapiens (Human), UniProt Q9Y5Y4); experiment: CRTH2 receptor binding inhibitory activity ([3H]-PGD2 displacement, membranes of CRTH2-expressing K562 cell); settings: [3H]-PGD2 displacement, membrane of CRTH2-expressing K562 cell, read-out: Ki
How it was run: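 CRTH2-expressing K562 membranes (20 μg/well) in 50 mM Tris/HCl pH 7.4 with 10 mM MgCl2 were incubated with [3H]-PGD2 for 60 min at room temperature, then filtered.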

[1] = Solubility test (1% DMSO addition, artificial intestinal juice pH 6.8); assay type: physicochemical; settings: fassgf or other biorelevant, kinetic from dmso stock, artificial intestinal juice pH 6.8, 16 hours at 25° C.
Method: A 10 mmol/L solution of the compound of the present invention is prepared with DMSO, and 6 μL of the compound solution is added to 594 μL of an artificial intestinal juice (water and 118 mL of 0.2 mol/L NaOH reagent are added to 250 mL of 0.2 mol/L potassium dihydrogen phosphate reagent to reach 1000 mL) with a pH of 6.8. The mixture is left standing for 16 hours at 25° C., and the mixture is vacuum-filtered. The filtrate is two-fold diluted with methanol/water=1/1 (V/V), and the compound concentration in the filtrate is measured with HPLC or LC/MS/MS by the absolute calibration method.

[2] = biological target: CYP3A4 enzyme expressed in Escherichia coli (Homo sapiens (Human), UniProt P08684); experiment: CYP3A4 fluorescent MBI test; assay type: in vitro ADME; settings: pre-reaction time 0 or 30 minutes, substrate 7-BFC; read-out: CYP3A4 MBI, difference between IC50 values with and without preincubation
[3] = Metabolism stability test; assay type: in vitro ADME; settings: human liver microsomes, 30 minutes, 37° C., NADPH, 0.5 μmol/L of the compound
Method: Using a commercially available pooled human hepatic microsomes, a compound of the present invention was reacted for a constant time, a remaining rate was calculated by comparing a reacted sample and an unreacted sample, thereby, a degree of metabolism in liver was assessed.
A reaction was performed (oxidative reaction) at 37° C. for 0 minute or 30 minutes in the presence of 1 mmol/L NADPH in 0.2 mL of a buffer (50 mmol/L Tris-HCl pH 7.4, 150 mmol/L potassium chloride, 10 mmol/L magnesium chloride) containing 0.5 mg protein/mL of human liver microsomes. After the reaction, 50 μL of the reaction mixture was added to 100 μL of a methanol/acetonitrile=1/1 (v/v), mixed and centrifuged at 3000 rpm for 15 minutes. The compound of the present invention in the supernatant was quantified by LC/MS/MS, and a remaining amount of the compound of the present invention after the reaction was calculated, letting a compound amount at 0 minute reaction time to be 100%. Glucuronidation reaction was in the presence of 5 mM UDP-glucuronic acid in place of NADPH, followed by similar operations.

[4] = CRTH2 receptor binding, categorized AAAA/AAA

Sequence of CYP2C9 (P11712 whole entry): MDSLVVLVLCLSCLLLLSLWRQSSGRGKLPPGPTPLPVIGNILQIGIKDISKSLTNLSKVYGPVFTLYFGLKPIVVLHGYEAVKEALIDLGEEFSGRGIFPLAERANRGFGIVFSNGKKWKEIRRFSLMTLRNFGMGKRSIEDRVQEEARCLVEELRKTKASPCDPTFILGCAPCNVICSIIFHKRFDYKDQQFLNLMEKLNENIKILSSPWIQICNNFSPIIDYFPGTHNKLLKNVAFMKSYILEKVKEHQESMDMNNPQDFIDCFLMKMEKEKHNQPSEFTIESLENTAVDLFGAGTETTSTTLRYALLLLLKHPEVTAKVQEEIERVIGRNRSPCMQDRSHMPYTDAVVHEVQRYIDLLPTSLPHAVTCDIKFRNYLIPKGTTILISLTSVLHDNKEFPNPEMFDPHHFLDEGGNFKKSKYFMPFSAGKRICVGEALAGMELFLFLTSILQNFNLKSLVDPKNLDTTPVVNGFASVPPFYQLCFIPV
Sequence of CYP3A4 enzyme expressed in Escherichia coli (P08684 whole entry): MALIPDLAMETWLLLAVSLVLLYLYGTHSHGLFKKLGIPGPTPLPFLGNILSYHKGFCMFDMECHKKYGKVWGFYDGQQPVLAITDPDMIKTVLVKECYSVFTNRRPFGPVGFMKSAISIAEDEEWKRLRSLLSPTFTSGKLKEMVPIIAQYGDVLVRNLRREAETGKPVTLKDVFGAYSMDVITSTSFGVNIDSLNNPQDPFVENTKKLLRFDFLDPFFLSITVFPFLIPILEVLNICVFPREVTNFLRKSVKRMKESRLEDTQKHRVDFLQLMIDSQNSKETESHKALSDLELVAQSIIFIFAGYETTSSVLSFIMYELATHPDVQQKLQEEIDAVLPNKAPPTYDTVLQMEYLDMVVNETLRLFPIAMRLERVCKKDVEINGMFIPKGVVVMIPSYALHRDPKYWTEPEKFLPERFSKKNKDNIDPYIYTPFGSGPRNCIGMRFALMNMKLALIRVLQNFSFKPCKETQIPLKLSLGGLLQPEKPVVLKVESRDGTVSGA
Sequence of CRTH2 (Q9Y5Y4 whole entry): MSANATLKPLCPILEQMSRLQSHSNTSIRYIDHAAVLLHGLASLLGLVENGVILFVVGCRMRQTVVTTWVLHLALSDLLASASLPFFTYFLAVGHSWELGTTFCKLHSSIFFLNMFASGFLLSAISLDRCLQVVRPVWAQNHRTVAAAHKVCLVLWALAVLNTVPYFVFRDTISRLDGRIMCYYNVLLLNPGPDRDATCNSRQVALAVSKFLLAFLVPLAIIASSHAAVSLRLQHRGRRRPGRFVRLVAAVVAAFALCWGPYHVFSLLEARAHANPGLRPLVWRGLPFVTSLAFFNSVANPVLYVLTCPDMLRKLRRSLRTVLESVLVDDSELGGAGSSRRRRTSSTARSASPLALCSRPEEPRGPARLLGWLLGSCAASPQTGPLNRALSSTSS

SMILES	IC50 (CYP2C9) [nM]	Ki (CRTH2; [4]) [nM]	solubility at 16 h [1] [µM]	difference in IC50 with vs without preincubation [2] [nM]	Ki (CRTH2) [nM]	remaining rate after reaction (result heading prints '% inhibition') [3] [%]
CC(C)Oc1ccc(S(=O)(=O)N2C[C@H](n3nc(CC(=O)O)c4ccc(F)cc43)C[C@H]2C#N)cc1 [Compound I-7]	> 20000	< 100	> 50	≤ 3000		
CC(C)Oc1ccc(S(=O)(=O)N2C[C@@H](C)[C@@H](n3nc(CC(=O)O)c4ccc(F)cc43)C2)cc1 [Compound I-37]	> 20000		> 50	≤ 3000	2.4	
CC(C)Oc1ccc(S(=O)(=O)N2C[C@@H](C)[C@@H](n3nc(CC(=O)O)c4ccc(F)cc43)C2)cn1 [Compound I-57]	> 20000	< 100	> 50	≤ 3000	3.8	86.9
CC(C)Oc1ccc(S(=O)(=O)N2C[C@@H](C)[C@@H](n3nc(CC(=O)O)c4ccc(F)cc43)C2)c(F)c1 [Compound I-52]	> 20000	< 100	> 50	≤ 3000	5.1	97.2
CCOc1ccc(S(=O)(=O)N2C[C@@H](C)[C@@H](n3nc(CC(=O)O)c4ccccc43)C2)cn1 [Compound I-96]	> 20000	< 100	> 50	≤ 3000	37	99.3
